Laboratory results reported in PubChem BioAssay AID463100 (The Scripps Research Institute Molecular Screening Center, 2010).

These compounds were tested on VIM-2-transformed E. coli growth with imipenem, MIC (assay: growth inhibition of VIM-2-expressing E. coli with imipenem, late-stage follow-up, counter-screen for IMP-1 and VIM-2 inhibitor project, VIM-2-transformed E. coli, imipenem co-treatment (AID 463100)).

| SMILES | MIC |
| --- | --- |
| O=C(O)c1cc[c]([Hg][Cl])cc1 | 9.37 µM |
| Cc1cc[c]([Hg+])cc1 | 0.651 µM |
| COc1cccc[c]1[Hg+] | 0.781 µM |
| O=C(O)c1ccc[c]([Hg+])c1 | 2.08 µM |
| CC(=O)Nc1cc[c]([Hg+])cc1 | 2.5 µM |
| [Hg+][c]1ccccc1 | 0.625 µM |
